Laboratory results as given in patent US20160256535A1, “HEXAPEPTIDE AND USES THEREOF” (priority 2013, published 2016).
Residues, ends and D or L forms follow the SMILES beside them.

Columns and labels:
A-2780 = test: Cytotoxicity by LDH release (Cytotox 96); type: cell-based, human; conditions: % of total LDH; for LDH release: 1.5 μM, 24 hr or 48 hr
Procedure: (§1) The leader peptide of 24 aa. […] The release of lactate dehydrogenase (LDH) was then measured quantitatively in the supernatant of the culture medium of the cells after 24 hr of incubation, using the Cytotox 96 non riadioactive cytotoxic assay kit in compliance with the technical indications provided by Promega. The experiments were performed in triplicate in an independent manner, using different preparations. (Table III)
(§2) After the incubation the amount of lactate dehydrogenase (LDH) released from cells into the supernatant was measured. This quantity was expressed as a percentage of the total LDH (released by cells in which cell lysis had been induced using a detergent). Approximately 3% of LDH was found in the culture medium of not treated cells.

HUT-7 Hepatocarcinoma = test: Cytotoxicity by LDH release (Cytotox 96); type: cell-based, human; set-up: LDH μelease: dose or concentration left out as unconfirmed; conditions: % of total LDH; for LDH release: 1.5 μM, 24 hr or 48 hr
Procedure: as §1, §2

MRC-5 = test: Cytotoxicity by LDH release (Cytotox 96); type: cell-based, human; set-up: LDH μelease: dose or concentration left out as unconfirmed; conditions: % of total LDH; for LDH release: 1.5 μM, 24 hr or 48 hr
Procedure: as §1, §2

PaTu Ca pancreatic = test: Cytotoxicity by LDH release (Cytotox 96); type: cell-based, human; set-up: LDH μelease: dose or concentration left out as unconfirmed; conditions: % of total LDH; for LDH release: 1.5 μM, 24 hr or 48 hr
Procedure: as §1, §2

[1] = tested on: Human breast carcinoma MCF-7; test: Cytotoxicity by LDH release (Cytotox 96); type: cell-based; conditions: % of total LDH; for LDH release: 1.5 μM, 24 hr or 48 hr
Procedure: as §1, §2

A2780 = test: Determination of platinum in culture medium and cell pellet by atomic absorption spectrophotometry; type: cell-based, human; conditions: 92 μM, 3 hours
Procedure: (§3) The cells to be examined, after the incubation period, were harvested, washed twice in buffered solution (PBS) and treated with 50 μl of 35% HNO3 for 16 hours. The platinum (Pt) contained in the culture medium or in the cell pellet was determined by spectrophotometer at atomic absorption (Analyst 800, Perkin-Elmer, Norwalk, Conn.) using the following criteria: temperature of pretreatment, 1300° C., temperature of atomizing 2200° C. 0.015 μg of palladium were used (palladium has been used for the modification of the matrix) and 0.01 μg of Mg (NO3)2 as a modifier of the matrix. The determinations were performed using a graphite furnace equipped with the correction system of the Zeeman effect. For the determination of the metal, tubes of pyrolytic graphite coated with THGA were used (Perkin-Elmer) with an integrated “vov-type platform” system. A standard solution of platinum in 2.5% HNO3 (Spectrascan) was used as a mother solution for the construction of a calibration curve with three points of reference. Each determination was performed independently, in triplicate (11).

A375 = test: as above; type: cell-based, human; conditions: 92 μM, 3 hours
Procedure: as §3

MCF-7 = test: as above; type: cell-based, human; conditions: 92 μM, 3 hours
Procedure: as §3

DU145 = test: as above; type: cell-based, human; conditions: 92 μM, 3 hours
Procedure: as §3

HUH-7 = test: as above; type: cell-based, human; conditions: 92 μM, 3 hours
Procedure: as §3

Human Normal Lymphocytes = test: Lymphocyte penetration, immunocytochemistry / immunofluorescence; type: cell-based; conditions: 3 hour incubation
Procedure: Human Normal Lymphocytes cells were collected from healthy donors and purified using Ficoll Hystopaque density gradient centrifugation. The cells were cultured at a density of 1×10^6 cells/mL in RPMI media supplemented with 1% Penstrep and 10% FBS in a humidified atmosphere containing 5% CO2 at 37° C.
(§4) A cytospin was used to smear cells onto slides. The smears were fixed in Zamboni solution (4% paraformaldehyde, 15% picric acid) for 60 minutes and then washed with 1×PBS and incubated for five minutes with 3% hydrogen peroxide to quench endogenous peroxidase activity. Immunostaining was performed using the DAKO LSA+System HRP kit. Rabbit anti-rMnSOD-Lp (1:200), was incubated on slides for 30 minutes, followed by incubation with the biotinylated secondary antibody for 30 minutes and peroxidase-labeled streptavidin for 30 minutes. To complete the reaction, a substrate-chromogen solution was used. The smears were counterstained with hematoxylin.

[2] = Cytotoxicity by LDH release, summary over the cell lines; type: cell-based; conditions: human
[3] = tested on: tumor cells of human origin; test: Immuno-histochemical assessment of internalization; type: cell-based; conditions: text summary of Table II
Procedure: Subsequently, a cytospin was used to obtain a smear of cells on slides. The cells were then placed in Zamboni solution (4% paraformaldehyde, 15% picric acid) for 60 min and then washed with a solution of 1×PBS and incubated for 5 min with 3% hydrogen peroxide to suppress the action of endogenous peroxidase. The immuno-coloring was performed using the Dako LSA+System HRP kit (DAKO, CA, USA). The incubation lasted 30 minutes with primary antibody anti-peptide leader of 24 aa (1:200), produced in rabbits. This phase was followed by sequential method that requires a 30-min incubation with biotinylated antibody and peroxidase-labeled streptavidin. To complete the reaction of differentiation, a substrate-chromogen solution was engaged. Cell smears were colored with hematoxylin.
(§5) A positive reaction is represented by a brownish coloration. A blue coloration indicates negativity.
The immunocytochemical analysis was performed using a polyclonal antibody able to recognize the amino acid sequence of the peptide leader of rMnSOD (7), ie of 24 aa. among which there are also those that form the hexapeptide.
After incubation with these molecules, the cells were washed and treated with the polyclonal antibody for three hours at rt, and then the cells were washed with a solution of PBS [17, 18]. In control cells (not treated and those treated with the antibody alone), the reaction is negative. […]

Jurkat cells = test: Jurkat cell penetration, immunofluorescence; type: cell-based, human; conditions: 92 μM, 3 h
Procedure: Jurkat cells (ATTC, UK) were seeded at density of 150000 cells/well in RPMI media supplemented with 1% Penstrep and 10% FBS in a humidified atmosphere containing 5% CO2 at 37°. The next day, the cells were incubated with 92 μM AVCGTG (SEQ ID NO. 1)-FITC for 3 h in multiwell 24. Subsequently, a cytospin was used to smear cells onto slides. The smears were fixed with 4% paraformaldehyde/PBS for 10 min and rinsed twice with 1×PBS containing 0.1% Triton to remove traces of fixative. Cell samples without AVCGTG (SEQ ID NO. 1)-FITC were used for the background control. After blocking solution with 5% NGS (Normal Goat Serum, VECTOR) 1×PBS+0,1% Triton X-100, was added for 30 minutes. After removing the blocking solution, cells were incubated with primary antibody hexapeptide, diluted 1:200 in blocking solution, overnight at 4° C. The following day, after washing with lx PBS and 0.1% Triton X-100 for 10 minutes, secondary antibody (ALEXA FLUO 488A, SANTACRUZ) diluted 1:400 with 1×PBS and 0.1% Triton X-100 for 2 h was added. The excess of antibody was removed with 3 washes with 1×PBS.
Nuclei were stained with DAPI (1 μg/mL). The slides were mounted and stored in the dark at 4° C. and then observed by fluorescence microscope ZEISS HB050 by using the software Axion Vision Re1.4.8.

white blood cells = test: White blood cell penetration, immunocytochemistry at light microscopy; type: cell-based, human; conditions: healthy subject
Procedure: as §4, with “Lymphocytes were incubated for five hours in the presence of fluorescinated Hexapeptide 92 μM. A cytospin” for “A cytospin”

cells = test: Ability of hexapeptide conjugated to fluorescein to enter cells (immunocytochemistry); type: cell-based; conditions: immunocytochemistry examination
Source text: The test results are positive and confirms the previous data.

[4] = tested on: Human breast cancer MCF-7; test: Immuno-histochemical assessment of internalization (Ab anti-leader peptide 24 aa); type: cell-based; conditions: 3 hours, 92 μM, positive = brownish coloration
Procedure: (§6) Subsequently, a cytospin was used to obtain a smear of cells on slides. […] The immuno-coloring was performed using the Dako LSA+System HRP kit (DAKO, CA, USA). The incubation lasted 30 minutes with primary antibody anti-peptide leader of 24 aa (1:200), produced in rabbits. This phase was followed by sequential method that requires a 30-min incubation with biotinylated antibody and peroxidase-labeled streptavidin. To complete the reaction of differentiation, a substrate-chromogen solution was engaged. Cell smears were colored with hematoxylin.
as §5
(§7) After incubation with these molecules, the cells were washed and treated with the polyclonal antibody for three hours at rt, and then the cells were washed with a solution of PBS [17, 18].

A-375 Melanoma = test: as above; type: cell-based, human; conditions: 3 hours, 92 μM, positive = brownish coloration
Procedure: as §6, §5, §7

[5] = tested on: DU 145 Renal Cell Carcinoma; test: as above; type: cell-based, human; conditions: 3 hours, 92 μM, positive = brownish coloration
Procedure: as §6, §5, §7

HUH HCC = test: as above; type: cell-based, human; conditions: 3 hours, 92 μM, positive = brownish coloration
Procedure: as §6, §5, §7

A-2780 Ovarian Ca = test: as above; type: cell-based, human; conditions: 3 hours, 92 μM, positive = brownish coloration
Procedure: as §6, §5, §7

Row | Molecule | LDH release (A-2780) [%] | LDH release (HUT-7 Hepatocarcinoma) [%] | LDH release (MRC-5) [%] | LDH release (PaTu Ca pancreatic) [%] | LDH release [1] [%] | Cellular uptake of Pt (A2780) [%] | Pt cell pellet (A2780) [µg/L] | Cellular uptake of Pt (A375) [%] | Pt cell pellet (A375) [µg/L] | Cellular uptake of Pt (MCF-7) [%] | Pt cell pellet (MCF-7) [µg/L] | Cellular uptake of Pt (DU145) [%] | Pt cell pellet (DU145) [µg/L] | Cellular uptake of Pt (HUH-7) [%] | Pt cell pellet (HUH-7) [µg/L] | reaction with polyclonal antibody against leader peptide of 24 aa [3] | internalization, reaction with Ab anti-peptide (24 aa) [4] | internalization, reaction with Ab anti-peptide (24 aa) (A-375 Melanoma) | internalization, reaction with Ab anti-peptide (24 aa) [5] | internalization, reaction with Ab anti-peptide (24 aa) (HUH HCC) | other results
1 | N.N.[Cl][Pt][Cl] [CC, cisplatin, reference compound] | 36 | 32 | 37 | 25 | 48 | 0.75 | 163 | 1.5 | 399.9 | 2.6 | 760 | 0.9 | 167.3 | 1.2 | 242.9 | – | – | – | – | – | –
2 | CC(C)[C@H](NC(=O)[C@H](C)N)C(=O)N[C@@H](CS)C(=O)NCC(=O)N[C@H](C(=O)NCC(=O)O)[C@@H](C)O [Hexapeptide, AVCGTG] (H-AVCGTG-OH; N-terminus assumed) | – | – | – | – | – | – | – | – | – | – | – | – | – | – | – | positive | – | – | – | – | LDH μelease (A-2780; 1.5 mM): 5%; internalization in lymphocytes (Human Normal Lymphocytes): cytoplasmic internalization; LDH μelease (HUT-7 Hepatocarcinoma): 4%; LDH μelease (MRC-5; not treated cells): 2%; LDH μelease (PaTu Ca pancreatic; not treated cells): 3%; mortality at 24 hr, 1.5 μM [2]: 2 to 5%; LDH μelease ([1]; 1.5 mM): 5%; penetration into Jurkat cells (Jurkat cells): cytoplasmic internalization; penetration into white blood cells (white blood cells): positive
3 | ACTGVG [reference compound] | – | – | – | – | – | – | – | – | – | – | – | – | – | – | – | – | – | – | – | – | penetration into the cells (cells): does not penetrate into the cells
4 | Lp-CC (AVCGTG) | 85 | 69 | 40 | 60 | 77 | 5.9 | 144 | 15.5 | 372 | 4.2 | 97 | 13.8 | 342.8 | 5.2 | 118.7 | – | positive | positive | positive | positive | internalization, reaction with Ab anti-peptide (24 aa) (A-2780 Ovarian Ca): positive
5 | rMnSOd: recombinant form of LSA-type-MnSOD bearing the 24 amino acid leader peptide at the N-terminus (protein, UniProt P04179 1-222, looked up, full-length) MLSRAVCGTSRQLAPVLGYLGSRQKHSLPDLPYDYGALEPHINAQIMQLHHSKHHAAYVNNLNVTEEKYQEALAKGDVTAQIALQPALKFNGGGHINHSIFWTNLSPNGGGEPKGELLEAIKRDFGSFDKFKEKLTAASVGVQGSGWGWLGFNKERGHLQIAACPNQDPLQGTTGLIPLLGIDVWEHAYYLQYKNVRPDYLKAIWNVINWENVTERYMACKK | – | – | – | – | – | – | – | – | – | – | – | – | – | – | – | positive | positive | positive | positive | positive | internalization, reaction with Ab anti-peptide (24 aa) (A-2780 Ovarian Ca): positive
